Measured values published in patent US20080269188A1, “Oatp-C Gene C463a Polymorphism Underlies Variable Response to Statin Therapy” (INSERM, priority 2005, published 2008).
Marks after values point to notes of the source that are not given here.

Columns and labels:
[1] = taken from Buse J., Clinical Diabetes 2003; cited from earlier work
[2] = FAME study: plasma lipid response to Fluvastatin XL 80 mg in elderly patients with primary hypercholesterolemia, overall and by OATP-C C463A (Pro155Thr) genotype; assay type: in vivo, human
Method: The characteristics of the study subjects have been previously reported.^26 Patients were enrolled in a large scale, randomized, double-blind, placebo-controlled multicenter study conducted in France, Italy, Spain, Belgium and Israel. Initially, the aim of this study was to investigate the efficacy and safety of extended-release (XL) Fluvastatin 80 mg once daily for up to one year in elderly patients with primary hypercholesterolemia. The study was approved by the relevant Ethic Committees, and informed consent Was given by all subjects before entering the study. Men or women, aged 70-85 years, with primary hypercholesterolemia (total cholesterol ≧251 mg/dL, triglycerides ≦407 mg/dL and LDL cholesterol ≧159 mg/dL after dietary intervention) were eligible for inclusion. […] OATP-C genotypes were determined in 420 subjects from the Fluvastatin arm of the study.
For each subject, plasma lipid response was calculated based on values obtained at baseline (week—2) and 2 months after treatment. Laboratory methods for lipid and lipoprotein measurements are described elsewhere 26; all parameters were measured at a central laboratory. […] Endpoint fluorescence (FAM™, VIC® or both), corresponding to cleavage of the allele-specific probe (allelic discrimination) was measured using an ABI PRISM 7000 Sequence Detection System (Applied Biosystems, Foster City, Calif.). […]

[3] = ALERT trial (renal transplantation): lipid parameters after 6 weeks of fluvastatin by OATP-C Pro155Thr genotype; assay type: in vivo, human; set-up: TC_Visit 2 / TC_Diff / TG_Visit 2 / TG_Diff / HDL_Visit 2 / HDL_Diff / LDL_Visit 2 / LDL_Diff: unit not given here; settings: LSMEAN; for HDL_% change / LDL_% change / TC_% change / TG_% change: 6 weeks; for HDL_Visit 2 / LDL_Visit 2 / TC_Visit 2 / TG_Visit 2: visit 2 (6 weeks of treatment), 40 mg daily; for HDL_Diff / LDL_Diff / TC_Diff / TG_Diff: week 6 minus visit zero
Method: Given the success of statins, and fluvastatin in particular, in lowering lipid levels and reducing cardiovascular disease in the general population, the Assessment of LEscol (Fluvastatin) in Renal Transplantation (ALERT) clinical trial was performed (Holdaas et al., 2003). This multicenter, randomized, double-blind placebo-controlled study followed […] renal transplant patients for 5-6 years. Patients were assigned to a placebo or fluvastatin (40 mg daily for two years, and 80 mg daily for the remainder of the study) group, and monitored in laboratory blood analysis every six months and annual electrocardiography.
The Alert trial was conducted in centres in the Scandinavian countries, UK, Germany, Belgium, Switzerland and Canada, with only minimal number of non-Caucasian patients. The demographic and baseline LDL-C characteristics are similar between the fluvastatin treatment and the placebo groups, as illustrated in Table 5.
Blood samples from each consenting patient were collected at the individual trial sites. The genomic DNA of each patient was extracted from the blood using the […]™ DNA Isolation Kit (D-50K) and then genotyping was performed. Ultimately, 1375 ALERT samples were genotyped: 693 from the Fluvastatin group (of 1050 total patients) and 682 from the placebo group (of 1052 total patients).
The primary efficacy variables tested were: LDL cholesterol at visit 2 (6 weeks of treatment) and Change in LDL cholesterol. The change in LDL cholesterol was calculated as the difference between the week 6 value and the visit zero value, for patients for whom both numbers were available. Additional efficacy variables tested in the full set of genotypes were: • HDL cholesterol at visit 2 (6 Weeks of treatment) • Change in HDL cholesterol • Total cholesterol at visit 2 (6 weeks of treatment) • Change in total cholesterol • Triglycerides at visit 2 (6 weeks of treatment) • Change in triglycerides.
Association tests used categorical genotypes as the independent variable, with no assumption about dominance, and the various efficacy variables as dependent variables. Tests of continuous dependent variables used an ANCOVA analysis. No adjustment was made for multiple testing effect.
The relevant association test for each phenotype was first performed in the Fluvastatin treated patient set. SNP-phenotype associations with a threshold of p<0.05 were then tested separately in the placebo set to determine Fluvastatin-related pharmacogenetic effect.

In the case of `CC(C)c1c(C(=O)Nc2ccccc2)c(-c2ccccc2)c(-c2ccc(F)cc2)n1CC[C@@H](O)C[C@@H](O)CC(=O)O` [Atorvastatin, atorvastatin], the Equipotent dose [1] is listed as 10 mg.
For `CC(C)n1c(/C=C/C(O)CC(O)CC(=O)O)c(-c2ccc(F)cc2)c2ccccc21` (stereo not shown) [Fluvastatin, fluvastatin], the “LDL-C, % Change” value ([2]; C463A genotype AA (Thr/Thr), n=15, baseline vs 2 months, mean ± SD) is given as −41%, the “absolute gain in LDL-C reduction” value ([2]; homozygous Thr/Thr vs homozygous wild-type Pro/Pro) is given as 10% and the Equipotent dose [1] is given as 80* mg. It also gave an HDL_% change ([3]; Pro155Thr genotype AA, n=16) of 18%, an LDL_% change ([3]; Pro155Thr genotype AA, n=16) of −34% and a TC_% change ([3]; Pro155Thr genotype AA, n=16) of −20%. For the same compound, the TG_% change ([3]; Pro155Thr genotype AA, n=16) was 8%, the “HDL_Visit 2” value ([3]; Pro155Thr genotype AA, n=16) was 1.58 and the “LDL_Visit 2” value ([3]; Pro155Thr genotype AA, n=16) was 2.68. For the same compound, the “TC_Visit 2” value ([3]; Pro155Thr genotype AA, n=16) was 5.17, the “TG_Visit 2” value ([3]; Pro155Thr genotype AA, n=16) was 2.12 and the HDL_Diff ([3]; Pro155Thr genotype AA, n=16) was 0.23. The LDL_Diff ([3]; Pro155Thr genotype AA, n=16) was −1.45, the TC_Diff ([3]; Pro155Thr genotype AA, n=16) was −1.27 and the TG_Diff ([3]; Pro155Thr genotype AA, n=16) was −0.037. The HDL_% change ([3]; Pro155Thr genotype AC, n=167) was 8%, the LDL_% change ([3]; Pro155Thr genotype AC, n=167) was −23% and the TC_% change ([3]; Pro155Thr genotype AC, n=167) was −16%. The TG_% change ([3]; Pro155Thr genotype AC, n=167) was −3%, the “HDL_Visit 2” value ([3]; Pro155Thr genotype AC, n=167) was 1.4 and the “LDL_Visit 2” value ([3]; Pro155Thr genotype AC, n=167) was 3.12. For the same compound, the “TC_Visit 2” value ([3]; Pro155Thr genotype AC, n=167) was 5.39, the “TG_Visit 2” value ([3]; Pro155Thr genotype AC, n=167) was 1.98 and the HDL_Diff ([3]; Pro155Thr genotype AC, n=167) was 0.05. The LDL_Diff ([3]; Pro155Thr genotype AC, n=167) was −1.02, the TC_Diff ([3]; Pro155Thr genotype AC, n=167) was −1.05 and the TG_Diff ([3]; Pro155Thr genotype AC, n=167) was −0.181. For the same compound, the HDL_% change ([3]; Pro155Thr genotype CC, n=468) was 9%, the LDL_% change ([3]; Pro155Thr genotype CC, n=468) was −28% and the TC_% change ([3]; Pro155Thr genotype CC, n=468) was −18%. For the same compound, the TG_% change ([3]; Pro155Thr genotype CC, n=468) was −5%, the “HDL_Visit 2” value ([3]; Pro155Thr genotype CC, n=468) was 1.43 and the “LDL_Visit 2” value ([3]; Pro155Thr genotype CC, n=468) was 2.91. For the same compound, the “TC_Visit 2” value ([3]; Pro155Thr genotype CC, n=468) was 5.21, the HDL_Diff ([3]; Pro155Thr genotype CC, n=468) was 0.08 and the LDL_Diff ([3]; Pro155Thr genotype CC, n=468) was −1.22. The TC_Diff ([3]; Pro155Thr genotype CC, n=468) was −1.23 and the TG_Diff ([3]; Pro155Thr genotype CC, n=468) was −0.226.
For `CC[C@H](C)C(=O)O[C@H]1C[C@@H](C)C=C2C=C[C@H](C)[C@H](CC[C@@H]3C[C@@H](O)CC(=O)O3)[C@H]21` [Lovastatin, lovastatin], the Equipotent dose [1] is listed as 60* mg.
